Patent publication US6949679B1, “Polyamine transport inhibitors” (Universite Laval, priority 1998, dated 2005)

Key:
[1] = tested on: polyamine transporter; assay: Inhibition of [3H]spermidine uptake in CHO-K1 cells; assay type: cell-based, Chinese hamster; conditions: [3H]spermidine as substrate
Method: To 1 ml of an extemporaneously prepared, DTT-free solution of MESC (20 mM in […]) were added 50 μl of 50 mM Tris-HCl (pH 7.0) and 105 μl of a 40 mM solution of either iodoacetamide, LY iodoacetamide or ASIB in a light-protected microcentrifuge tube, and the mixture was incubated for 2 hours at 37° C. […] Excess iodoacetamide was then inactivated by adding DTT to a final concentration of 40 mM and incubating the solution for 2 hours at 37° C. […] The effect of the respective DTT-inactivated iodoacetamide on spermidine transport was determined in parallel by incubating cells with the same reaction mixture from which MESC was omitted. […] J. Biol. […] Cells were then lysed with 200-μl aliquot of 1 N NaOH and incubated for 30 minutes at 60° C. After neutralization with 200 μl of 1 N HCl, radioactivity was determined from a 250-μl of the cell lysate by scintillation counting. Uptake activity was expressed per amount of total cellular protein as determined by the method of Bradford (Bradford, M. M. 1976. Anal. Biochem. 72: 248-254). […] K[…] Ki and Vmax values were then estimated by Lineweaver-Burke analysis. For competitive inhibitors, Ki values were also estimated by measuring uptake activity in the presence of logarithmically increasing concentrations of antagonist, and using the Cheng-Prusoff equation (Cheng, Y.-C. and Prusoff, W. H. 1973. Biochem. Pharmacol. 22: 3099-3108) by iterative curve fitting for a sigmoidal curve. For mixed competitive/noncompetitive inhibition, two methods were used to calculate kinetic constants. […] C. 1976. Enzymes, 3rd Ed., Academic Press, San Diego, Calif.). […] C. 1976. Enzymes, 3rd Ed., Academic Press, San Diego, Calif.). Intracellular Accumulation

[2] = tested on: polyamine transporter; assay: Inhibition of [14C]spermine uptake in ZR-75-1 cells; assay type: cell-based, human
Method: The rate of putrescine and spermidine transport was determined in ZR-75-1 cells incubated in serum-free RPMI 1640 medium as described (Lessard, M., Zhao, C., Singh, S. M. and Poulin, R. 1995. J. Biol. Chem. 270: 1685-1694), using [^3H]putrescine (30 Ci/mol) and [^3H]spermidine (20 Ci/mol), respectively as substrates for a 20 minute-assay period. […] Uptake activity was expressed per amount of DNA as fluorometrically determined using 3,4-diaminobenzoic acid (Simard, J., Dauvois, S., Haagensen, D. E., Lėvesque, C., Mėrand, Y. and Labrie, F. 1990. Endocrinology, 126: 3223-3231). For the determination of spermidine uptake activity in CHO-K1 cells, 80% confluent cell monolayers were rinsed twice with PBS and incubated for 20 minutes at 37° C. in 400 μl of buffer A (20 mM Tris-HCl, pH 7.4; 0.42 mM CaCl2; 0.41 mM MgSO4; 103 mM NaCl; 5.7 mM KCl; 1.1 mM D-glucose) containing 5 μM [^3H]spermidine (20 Ci/mol). Cell cultures were then washed twice with 1 ml PBS containing 5.7 mM sym-norspermidine. Cells were then lysed with 200-μl aliquot of 1 N NaOH and incubated for 30 minutes at 60° C. After neutralization with 200 μl of 1 N HCl, radioactivity was determined from a 250-μl of the cell lysate by scintillation counting. Uptake activity was expressed per amount of total cellular protein as determined by the method of Bradford (Bradford, M. M. 1976. Anal. Biochem. 72: 248-254). Non-specific binding of radioactive substrate was similarly determined in parallel for both cell lines after a 15 second-incubation with 400 μl of ice-cold uptake solution.
Kinetic analysis of polyamine transport was performed by determining uptake activity in the presence of a 3 μM [^3H]putrescine or 1 μM [^3H]spermidine plus increasing concentrations of nonradioactive substrate. K[…] Ki and Vmax values were then estimated by Lineweaver-Burke analysis. For competitive inhibitors, Ki values were also estimated by measuring uptake activity in the presence of logarithmically increasing concentrations of antagonist, and using the Cheng-Prusoff equation (Cheng, Y.-C. and Prusoff, W. H. 1973. Biochem. Pharmacol. 22: 3099-3108) by iterative curve fitting for a sigmoidal curve. For mixed competitive/noncompetitive inhibition, two methods were used to calculate kinetic constants. First, the equation [drawing 2] where v, s, and i are the transport velocity, substrate concentration and inhibitor concentration respectively, was used to calculate the inhibition constants for inhibitor/carrier complex formation (Ki) and carrier/inhibitor/substrate complex formation (Ki′) (Dixon, M. and Webb, E. C. 1976. Enzymes, 3rd Ed., Academic Press, San Diego, Calif.). Alternatively, the value of Ki for a mixed competitor/non-competitor was estimated from the intersect of equations v^−1 vs i at two different substrate concentrations (Dixon, M. and Webb, E. C. 1976. Enzymes, 3rd Ed., Academic Press, San Diego, Calif.). Intracellular Accumulation
In order to evaluate the effectiveness of dimeric triamines as polyamine transport inhibitors, we synthesized N,N′-bis(3-aminopropyl),N,N′-bis(4-aminobutyl)cystamine or BABAC (structure 1, FIG. 25; FIG. 31), and its thiol form N-(3-aminopropyl),N-(4-aminobutyl)cysteamine or AAC (FIG. 31) according to Scheme 4 described above (FIG. 30), using spermidine as a precursor polyamine. The ability of BABAC and AAC to inhibit the intracellular uptake of radio-labeled putrescine and spermidine in the ZR-75-1 human breast cancer cell line was then determined according to standard published procedures (Lessard, et al. and Poulin, et al.) Briefly, ZR-75-1 cells were grown for four days in twenty-four well plates in RPMI 1640 medium supplemented with 10% fetal bovine serum.

[3] = tested on: ZR-75-1 cells; assay: Reversal of DFMO-induced growth inhibition by exogenous spermidine; assay type: cell-based, human; conditions: 50 μM DESC, DESC:spermidine ratio up to 500
Method: For growth studies, ZR-75-1 cells were cultured in MEZR medium or in phenol red-free RPMI 1640 supplemented with 2 mM L-glutamine, 1 mM sodium pyruvate, 15 mM Hepes, antibiotics, 1 nM 17β-estradiol, 0.5 μg of bovine insulin per ml and 5% (v/v) charcoal-treated fetal bovine serum (SD medium), as indicated in the text. When polyamines or polyamine analogs were added to serum-containing media, 1 mM aminoguanidine was added to inhibit bovine serum amine oxidase (BSAO) activity (Morgan, D. M. L. 1989, in The Physiology of Polyamines (Bachrach, U., and Heimer, Y. M. eds) Vol. I, pp. 203-229, CRC Press, Boca Raton). The effect of the transport inhibitors on cell growth was measured by incubating ZR-75-1 cells for 11 days in medium supplemented with antagonist, polyamines and/or 1 mM DFMO as indicated, followed by colorimetric determination of DNA content with 3,4-diaminobenzoic acid (Simard, J., Dauvois, S., Haagensen, D. E., Lėvesque C., Mėrand, Y. and Labriė, F. 1990. Endocrinology 126: 3223-3231).
This possibility was assessed by comparing the ability of DESC to prevent the reversal of DFMO-induced growth inhibition by increasing concentrations of exogenous spermidine.

[4] = this work, read-out: Km or Ki, spermine transport

Structure (SMILES) | Ki [1] [µM] | Ki for [14C]spermine transport, fold higher than that of DESC ([2]; FIG. 2) [fold] | Ki [2, 4] [µM] | Ability to prevent reversal of DFMO-induced growth inhibition by spermidine [3] | Ki ([2]; FIG. 32, read-out: Apparent Ki, spermine uptake) [µM]
NCCCNCCCC(NCCCN)C(=O)NCCS (stereo not shown) [MESC, N-(2-mercaptoethyl)spermine-5-carboxamide] | 33.6 ± 7.2 | ~16 | 80 ± 31 | – | –
NCCCNCCCC(NCCCN)C(=O)NCCSSCCNC(=O)C(CCCNCCCN)NCCCN (stereo not shown) [DESC, 2,2′-dithiobis(N-ethyl-spermine-5-carboxamide)] | 0.92 ± 0.15 | – | 5 ± 0.7 | unable to prevent the reversal | 7.5
